{"source": "patent US20190116833A1", "about": "“FEED ADDITIVE COMPOSITIONS” (priority 2017, published 2019)", "key": {"[1]": {"assay": "Growth performance of early weaned pigs, SMBS titration (Example 3)", "format": "in vivo", "settings": "in words", "text": "A total of 1,296 weanling pigs were used to determine the impact of […] on growth performance in 19 to 20 day old pigs. The ratio of same-sow source pens was equalized within treatments. The number of barrows and gilts was balanced within the pen (either 13 […] or 14 […] per pen). Upon arrival weanling pigs were sorted to pens (48 pens with 27 pigs per pen) and weighed as a complete pen of pigs. Pens within block were randomly assigned to one of 4 dietary treatments (1 control and 3 experimental diets; Table 6) in a randomized complete block design. Diets containing testing products were made by mixing the testing products into the basal diet (Table 7).\nPig weights were taken at placement and at the end of each diet phase (day 9 and 23). Feed weights were collected daily and the data was used to calculate ADG, ADFI and F/G for both diet phases and for the entire experimental period (23 days). Blood samples were on day 0 and 23 of the study from one barrow in each pen. Each pen was selected at the beginning of the study, identified with an ear tag, and sampled again at the end of the study. 8.5 mL blood was collected and allowed to clot on ice for at least 1.5 hr and centrifuged at 2,000×g for 13 min (4° C.). Fecal scores for each pen were collected on d 3, 5, 7, and 10 using the following scale: 0=none; 1=mild; 2=substantial; 3=severe (Citation 1: Marquardt et al., 1999)."}, "[2]": {"assay": "Post-weaning pig growth performance, SMBS vs SMBS + formulated yeast, 2-phase feeding (Example 7)", "format": "in vivo", "text": "A total of 972 pigs were used to determine the effect of sodium metabisulfite (SMBS) or SMBS plus formulated yeast on weanling pig growth performance. Upon arrival pigs were sorted to pens with 27 pigs per pen. Pigs were weighed on pen basis. Pens within block were randomly assigned to one of 3 dietary treatments (1 control and 2 experimental diets; Table 17) in a randomized complete block design. This will result in 12 pens for each treatment for evaluation of growth performance, fecal scores, and health status.\nThis experiment was conducted for approximately 22 days in a 2-phase feeding program (Table 18) immediately after weaning. Feed was provided through the FeedLogic® system allowing collection of feed intake data by pen."}}, "note": "Marks after values point to notes of the source that are not given here."}
{"smiles": "O=S([O-])S(=O)(=O)[O-].[Na+].[Na+]", "note": "[SMBS, sodium metabisulfite]", "values": [{"measurement": "ADG and F/G", "setting": "[1]; increasing levels, both phases of the study", "result": "linear (P<0.05) improvements"}, {"measurement": "ADG", "setting": "[1]; titrating from 0 to 10 lb/ton", "result": "Linear increase"}, {"measurement": "F/G", "setting": "[1]; titrating from 0 to 10 lb/ton", "result": "Linear decrease"}, {"measurement": "ADFI", "setting": "[2]; Phase 1 + 2, 22 days", "result": "0.78^cd lb/day"}, {"measurement": "ADG", "setting": "[2]; Phase 1 + 2, 22 days", "result": 0.54, "unit": "lb/day"}, {"measurement": "ADG, change versus Control", "setting": "[2]; Phase 1 + 2, 22 days", "result": "(+10.2%)^b"}, {"measurement": "F:G", "setting": "[2]; Phase 1 + 2, 22 days", "result": 1.45}, {"measurement": "F:G, change versus Control", "setting": "[2]; Phase 1 + 2, 22 days", "result": "(−6.5%)^b"}, {"measurement": "Mortality", "setting": "[2]; Phase 1 + 2, 22 days", "result": 0.6, "unit": "%"}, {"measurement": "Total removal", "setting": "[2]; Phase 1 + 2, 22 days", "result": 2.2, "unit": "%"}, {"measurement": "ADFI", "setting": "[2]; Phase 1, 8 days", "result": 0.46, "unit": "lb/day"}, {"measurement": "ADG", "setting": "[2]; Phase 1, 8 days", "result": "0.16^d lb/day"}, {"measurement": "G:F", "setting": "[2]; Phase 1, 8 days", "result": "0.35^d"}, {"measurement": "ADFI", "setting": "[2]; Phase 2, 14 days", "result": "0.96^ab lb/day"}, {"measurement": "ADG", "setting": "[2]; Phase 2, 14 days", "result": "0.76^b lb/day"}, {"measurement": "F:G", "setting": "[2]; Phase 2, 14 days", "result": "1.27^b"}, {"measurement": "BW end of Phase 1", "setting": "[2]; end of Phase 1, 8 days", "result": 13.4, "unit": "lb"}, {"measurement": "BW end of Phase 2", "setting": "[2]; end of Phase 2, 14 days", "result": "24.1^b lb"}, {"measurement": "Start BW", "setting": "[2]; start of experiment (baseline)", "result": 11.8, "unit": "lb"}]}
